Here are results for 21 compounds from patent publication US20080085893A1, “MATRIX METALLOPROTEASE INHIBITORS” (priority 2006, published 2008).

Where “and” joins values, the source holds several entries; their conditions need not be identical. Equal values may be shown once. Read-outs that look alike come from different tables or passages of the source.

Holding throughout (format): biochemical
For experiment [1], the target named is T1, human MMP-9 (amino acids 107-446) (Homo sapiens, UniProt P14780).
T1 construct: human MMP-9 (amino acids 107-446); made in house
T1 sequence (P14780 107-446): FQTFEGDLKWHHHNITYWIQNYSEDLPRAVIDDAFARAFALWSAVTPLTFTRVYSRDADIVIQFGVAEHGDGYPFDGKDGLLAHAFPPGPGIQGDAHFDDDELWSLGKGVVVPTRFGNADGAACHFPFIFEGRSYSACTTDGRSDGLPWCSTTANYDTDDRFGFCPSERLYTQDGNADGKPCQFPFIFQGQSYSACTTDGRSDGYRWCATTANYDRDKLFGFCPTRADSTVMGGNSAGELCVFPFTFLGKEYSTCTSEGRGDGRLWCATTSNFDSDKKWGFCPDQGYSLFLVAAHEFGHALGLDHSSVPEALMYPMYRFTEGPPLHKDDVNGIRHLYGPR
Description: MMP dose response assay for determining IC50, MMP-9. The conditions noted are these: recombinant enzyme, fluorescent-quench substrate 100 nM; read-out: MMP-9. The procedure: (§1) MMP Dose Response Assay for Determining IC50
(§2) The following method was used for determining IC50 values of different inhibitor compounds against multiple MMP enzymes. Frozen stocks of recombinantly produced MMPs were prepared in assay buffer (50 mM HEPES pH 7.4, 10 mM CaCl2, 0.05% Brij-35). […] Enzyme concentrations in the assay were determined empirically and set such that proteolytic activity was maintained in a linear range over the time-course of the experiment. […] Each concentration for each test compound was tested in triplicate. MMP enzymes were equilibrated with compounds for 1 hour at room temperature, then a fluorescent-quench substrate (Acetyl-Cys(Eu)-Pro-Leu-Gly-Leu-Lys-(QSY7)-Ala-Arg-amide) was added to a final concentration of 100 nM. […] Data was analyzed by first calculating average background value from wells that contained only substrate, and this value was subtracted from the entire plate. The 100%, or maximum value, was determined by averaging control wells that contained enzyme, substrate and DMSO. For each well, the percent of control was calculated by dividing the well value by the average DMSO value obtained above.

The target in experiment [2] is T2, human MMP-2 (amino acids 1-660) (Homo sapiens, UniProt P08253).
T2 construct: human MMP-2 (amino acids 1-660); made in house
T2 sequence (P08253 110-660): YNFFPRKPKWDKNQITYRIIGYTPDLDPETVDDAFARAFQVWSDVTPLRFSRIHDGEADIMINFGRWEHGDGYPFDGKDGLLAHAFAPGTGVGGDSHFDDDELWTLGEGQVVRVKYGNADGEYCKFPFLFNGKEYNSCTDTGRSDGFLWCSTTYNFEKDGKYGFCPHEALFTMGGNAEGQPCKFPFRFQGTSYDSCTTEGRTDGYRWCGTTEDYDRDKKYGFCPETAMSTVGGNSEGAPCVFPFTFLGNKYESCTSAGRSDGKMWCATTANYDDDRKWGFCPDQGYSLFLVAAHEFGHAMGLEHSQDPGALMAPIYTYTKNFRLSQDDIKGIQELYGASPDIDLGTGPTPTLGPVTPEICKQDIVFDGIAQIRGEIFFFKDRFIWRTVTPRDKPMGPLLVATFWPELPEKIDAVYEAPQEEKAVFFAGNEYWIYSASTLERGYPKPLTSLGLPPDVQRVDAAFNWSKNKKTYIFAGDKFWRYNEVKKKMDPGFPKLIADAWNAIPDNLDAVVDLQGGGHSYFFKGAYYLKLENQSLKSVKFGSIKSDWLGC
Description: MMP dose response assay for determining IC50, MMP-2. The procedure: as §1, §2

In experiment [3] the target is T3, human MMP-1 (amino acids 100-262) (Homo sapiens, UniProt P03956).
T3 construct: human MMP-1 (amino acids 100-262); made in house
T3 sequence (P03956 100-262): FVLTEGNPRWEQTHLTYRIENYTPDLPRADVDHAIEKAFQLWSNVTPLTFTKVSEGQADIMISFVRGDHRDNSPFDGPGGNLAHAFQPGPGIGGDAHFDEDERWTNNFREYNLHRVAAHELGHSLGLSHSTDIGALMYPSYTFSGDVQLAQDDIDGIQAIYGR
Description: MMP dose response assay for determining IC50, MMP-1. The conditions noted are these: recombinant catalytic domain, fluorescent-quench substrate 100 nM. The method, then: as §1, §2

Where [4] appears, read: recombinant enzyme, fluorescent-quench substrate 100 nM, read-out: MMP-2.

`CS(=O)(=O)N(C[C@H](Nc1cccc(F)c1)C(=O)NO)c1ccc(Oc2ccc(C(F)(F)F)cn2)cc1` [Example 55, N-Hydroxy (2S)-2-(3-fluorophenyl)amino-3-{N-{4-[(5-trifluoromethylpyridin-2-yl)oxy]phenyl},N-methanesulfonylamino}propionamide]: the IC50 in experiment [1] came to 410 nM; in experiment [2] (setting [4]), 1560 nM. Consider `CC(C)N[C@@H](CN(c1ccc(Oc2ccc(C(F)(F)F)cn2)cc1)S(C)(=O)=O)C(=O)NO` [Example 56, N-Hydroxy (2S)-2-(2-propyl)amino-3-{N-{4-[(5-trifluoromethylpyridin-2-yl)oxyl]phenyl},N-methanesulfonylamino}propionamide], for which the IC50 in experiment [1] worked out at 144 nM; in experiment [2] (setting [4]), 396 nM. The corresponding values for `CS(=O)(=O)N(C[C@@H](C(=O)NO)N1CCOCC1)c1ccc(Oc2ccc(C(F)(F)F)cn2)cc1` [Example 57, N-Hydroxy (2S)-2-(morpholin-4-yl)-3-{N-{4-[(5-trifluoromethylpyridin-2-yl)oxy]phenyl},N-methanesulfonylamino}propionamide] are 227 nM and 406 nM. For the compound `CC(C)N[C@@H](CN(c1ccc(Oc2ccc(C(F)(F)F)cc2)cc1)S(C)(=O)=O)C(=O)NO` [Example 58, N-Hydroxy (2S)-2-(2-propyl)amino-3-{N-[4-(4-trifluoromethylphenoxy)phenyl],N-methanesulfonylamino}propionamide], the IC50 in experiment [1] was 2.37 nM; in experiment [2] (setting [4]), 9.16 nM. The like results for `CS(=O)(=O)N(C[C@H](Nc1cccc(F)c1)C(=O)NO)c1ccc(Oc2ccc(C(F)(F)F)cc2)cc1` [Example 59, N-Hydroxy (2S)-2-(3-fluorophenyl)amino-3-{N-[4-(4-trifluoromethylphenoxy)phenyl],N-methanesulfonylamino}propionamide] were, in that order, 31.9 nM and 466 nM. On to `COc1ccc(C#Cc2ccc(N(C[C@H](O)C(=O)NO)S(C)(=O)=O)cc2)cc1` [Example 61, N-Hydroxy (2S)-2-hydroxy-3-{N-[4-(4-methoxyphenylacetylene)phenyl],N-methanesulfonylamino}propionamide], for which the IC50 in experiment [1] is 91 nM; in experiment [2] (MMP-2 (nM)) it was 31.6 nM.

`CS(=O)(=O)N(C[C@@H](C(=O)NO)N1CCc2ccccc2C1)c1ccc(Oc2ccc(C(F)(F)F)cc2)cc1` [Example 73, N-Hydroxy (2S)-2-(1,2,3,4-tetrahydroisoquinolin-2-yl)-3-{N-[4-(4-trifluoromethylphenoxy)phenyl],N-methanesulfonylamino}propionamide]: the IC50 in experiment [3] was above 10000 nM. In the case of `CS(=O)(=O)N(C[C@@H](C(=O)NO)N1CCC(O)CC1)c1ccc(Oc2ccc(Cl)cc2)cc1` [Example 88, N-Hydroxy (2S)-3-{N-[4-(4-chlorophenoxy)phenyl],N-methanesulfonylamino}-2-(4-hydroxypiperidin-1-yl)propionamide], the IC50 in experiment [1] came out at 0.9 nM; in experiment [2] (setting [4]), 3.13 nM.

Regarding `CS(=O)(=O)N(C[C@@H](C(=O)NO)N1CCOCC1)c1ccc(Oc2ccc(Cl)cc2)cc1` [Example 89, N-Hydroxy (2S)-2-(morpholin-4-yl)-3-{N-[4-(4-chlorophenoxy)phenyl],N-methanesulfonylamino}propionamide], the IC50 was 2 nM in experiment [1] and 5.52 nM in experiment [2] (setting [4]).

Turning to `CS(=O)(=O)N(C[C@H](O)C(=O)NO)c1ccc(Sc2ccc(F)cc2)cc1` [Example 90, N-Hydroxy (2S)-2-hydroxy-3-{N-[4-(4-fluorothiophenoxy)phenyl],N-methanesulfonylamino}propionamide], the IC50 in experiment [1] is 64.4 nM and 39.2 nM; in experiment [2] (setting [4]), 312 nM and 254 nM. In the case of `CC(C)N1CCN([C@@H](CN(c2ccc(Oc3ccc(Cl)cc3)cc2)S(C)(=O)=O)C(=O)NO)CC1` [Example 91, N-Hydroxy (2S)-3-{N-[4-(4-chlorophenoxy)phenyl],N-methanesulfonylamino}-2-[4-(2-propyl)piperazin-1-yl]Propionamide], the IC50 in experiment [1] came to 3.11 nM; in experiment [2] (setting [4]), 8.77 nM. For `CN1CCN([C@@H](CN(c2ccc(Oc3ccc(Cl)cc3)cc2)S(C)(=O)=O)C(=O)NO)CC1` [Example 92, N-Hydroxy (2S)-3-{N-[4-(4-chlorophenoxy)phenyl],N-methanesulfonylamino}-2-(4-methylpiperazin-1-yl)propionamide], the IC50 in experiment [1] is 2.39 nM; in experiment [2] (setting [4]), 6.5 nM. The like results for `CS(=O)(=O)N(C[C@H](NC(=O)C1CCOCC1)C(=O)NO)c1ccc(Oc2ccc(C(F)(F)F)cc2)cc1` [Example 93, N-Hydroxy (2S)-2-[(tetrahydropyran-4-yl)carbonylamino]-3-{N-[4-(4-trifluoromethylphenoxy)phenyl],N-methanesulfonylamino}propionamide] were, in that order, 54.1 nM and 836 nM. The corresponding values for `CC(C)CC#Cc1ccc(N(C[C@@H](C(=O)NO)N2CCOCC2)S(C)(=O)=O)cc1` [Example 94, N-Hydroxy (2S)-3-{N-[4-(4-methylpentyn-1-yl)phenyl],N-methanesulfonylamino}-2-(morpholin-4-yl)propionamide] are 113 nM and 106 nM. Regarding `C[C@@H]1CN([C@@H](CN(c2ccc(Oc3ccc(Cl)cc3)cc2)S(C)(=O)=O)C(=O)NO)C[C@H](C)O1` [Example 95, N-Hydroxy (2S)-3-{N-[4-(4-chlorophenoxy)phenyl],N-methanesulfonylamino}-2-(cis-2,6-dimethylmorpholin-4-yl)propionamide], the IC50 in experiment [1] was 0.57 nM and 0.64 nM and 0.17 nM; in experiment [2] (setting [4]), 2.54 nM and 3.69 nM and 1.28 nM. Consider `CS(=O)(=O)N(C[C@@H](C(=O)NO)N1CCCCC1)c1ccc(Oc2ccc(C(F)(F)F)cc2)cc1` [Example 96, N-Hydroxy (2S)-2-(piperidin-1-yl)-3-{N-[4-(4-trifluoromethylphenoxy)phenyl],N-methanesulfonylamino}propionamide], for which the IC50 amounted to 2.34 nM in experiment [1] and 7.55 nM in experiment [2] (setting [4]). For `CN(O)C(=O)[C@H](CN(c1ccc(Oc2ccc(C(F)(F)F)cc2)cc1)S(C)(=O)=O)N1CCOCC1` [Example 98, N-Hydroxy,N-methyl (2S)-2-(morpholin-4-yl)-3-{N-[4-(4-trifluoromethylphenoxy)phenyl],N-methanesulfonylamino}propionamide], the IC50 in experiment [1] is 159 nM; in experiment [2] (setting [4]), 447 nM. `CC(C)O[C@@H](CN(c1ccc(Oc2ccc(C(F)(F)F)cc2)cc1)S(C)(=O)=O)C(=O)NO` [Example 99, N-Hydroxy (2S)-2-(2-propoxy)-3-{N-[4-(4-trifluoromethylphenoxy)phenyl],N-methanesulfonylamino}propionamide]: the IC50 was determined as 8.18 nM in experiment [1] and 50.3 nM in experiment [2] (setting [4]). In the case of `Cc1ccc(Oc2ccc(N(C[C@@H](C(=O)NO)N3C[C@@H](C)O[C@@H](C)C3)S(C)(=O)=O)cc2)cc1` [Example 100, N-Hydroxy (2S)-2-(cis-2,6-dimethylmorpholin-4-yl)-3-{N-[4-(4-methylphenoxy)phenyl],N-methanesulfonylamino}propionamide], the results for the IC50 in experiment [1] and in experiment [2] (setting [4]) were 0.68 nM and 2.83 nM, respectively. As for `CS(=O)(=O)N(C[C@H](O)C(=O)N(O)CCN1CCOCC1)c1ccc(Oc2ccc(Cl)cc2)cc1` [Example 101, N-Hydroxy,N-[2-(morpholin-4-yl)ethyl](2S)-2-hydroxy-3-{N-[4-(4-chlorophenoxy)phenyl],N-methanesulfonylamino}propionamide], the IC50 in experiment [1] is 206 nM; in experiment [2] (setting [4]), 1400 nM. Take `C=CCN(O)C(=O)[C@H](CN(c1ccc(Oc2ccc(C)cc2)cc1)S(C)(=O)=O)N1C[C@@H](C)O[C@@H](C)C1` [Example 102, N-(3-Allyl),N-hydroxy (2S)-2-(cis-2,6-dimethylmorpholin-4-yl)-3-{N-[4-(4-methylphenoxy)phenyl],N-methanesulfonylamino}propionamide]: the IC50 in experiment [1] was 6.53 nM and 6.01 nM; in experiment [2] (setting [4]), 23 nM and 24.8 nM.
